Experimental data from US5385931A, “Sulfonamides derived from benzocyclic or benzoheterocyclic acids, their preparation and application in therapeutics” (Pierre Fabre Medicament, priority 1989, dated 1995).
Converted amounts (≈) assume the structure as drawn. Values belong to the molecule of their own block, whether it stands above or below them.

What was measured:
Solubility in water = type: physicochemical; conditions: for solubility: read-out: soluble in water to give a solution of
Solubility in DMSO = type: physicochemical
[1] = test system: blood platelet aggregation induced by U.46619; test: In vitro rabbit platelet aggregation induced by U.46619; type: cell-based, New Zealand rabbits; conditions: Oryctolagus cuniculus; rabbit platelet-rich plasma; U.46619 1.05 to 2.44 micromoles; pre-incubated 1 min at 37° C., pH 7.4
Description: (§1) Blood is taken from white male New Zealand rabbits which have not received any treatment capable of disrupting the platelet functions.
(§2) After having allowed the first drops to flow freely, the blood is collected in plastic tubes containing 3.8% (wt/v) trisodium citrate 5.5 H2 O, the citrate/blood ratio being 1 volume of citrate per 9 volumes of blood.
(§3) The blood platelet aggregation study is carried out starting from plasmas rich in platelets obtained by centrifuging the above blood samples at low speed. It is measured with the aid of a Mustard aggregometer at a wavelength of 609 nm with a stirring speed of 1,100 revolutions/min.
(§4) The products to be studied are dissolved in polyethylene glycol 300 and pre-incubated for 1 min at 37° C. under a volume of 10 microliters,in a mixture of 300 microliters of plasma rich in platelets and 90 microliters of Tyrode's solution without calcium, pH=7.4. (Corresponding controls are produced by pre-incubating the vehicle on its own instead of solutions of products to be studied).
(§5) The blood platelet aggregation is initiated by the addition either of U.46619 (final concentrations: 1.05 to 2.44 micromoles) or of arachidonic acid (final concentrations: 50 to 100 micromoles).
(§6) Starting from the parameter of the maximum percentage aggregation, the anti-aggregant activity of a product is calculated using the formula: [formula]
One curve: anti-aggregant activity=f (final concentration) is plotted for each product and the 50% inhibitory concentration determined from the graph.
In the case of aggregation with U.46619, the IC50 are given in Table I for compounds 1, 2, 3, 7 and 11 by way of non-limiting example: […]

conventional mice = test: Toxicology, intraperitoneal, mice; type: in vivo; conditions: 500 mg per kilo intraperitoneally
Description: The chemical compounds described above were subjected to toxicity checks. This study was carried out on conventional mice weighing from 20 to 22 g. The compounds of general formula I were administered intraperitoneally.

[2] = test system: blood platelet aggregation induced by arachidonic acid; test: In vitro rabbit platelet aggregation induced by arachidonic acid; type: cell-based, New Zealand rabbits; conditions: arachidonic acid 50 to 100 micromoles; for inhibition at 100 µM / inhibition at 10 µM: Oryctolagus cuniculus, Platelet; for inhibition at 100 µM: final concentration of compound 10^-4 M; for inhibition at 10 µM: final concentration of compound 10^-5 M
Description: as §1, §2, §3, §4, §5, §6
The percentage inhibition of the aggregation with arachidonic acid is given in Table II for compounds 2 and 3 by way of non-limiting examples: […]

[3] = test system: platelet aggregation induced by U.46619; test: Ex vivo inhibition of U.46619-induced platelet aggregation after oral administration in rabbits; design: species or system New Zealand rabbits; conditions: t=+90 min relative to control curve at t=0
Description: b) Ex vivo action: inhibition of anti-aggregant effects using U.46619 in rabbits.
Because of their powerful activity in vitro, the anti-aggregant effects ex vivo were studied in rabbits. The substances of general formula I, which are the subject of the present invention, are administered orally as a 1% suspension in carboxymethylcellulose to natural male New Zealand rabbits weighing 2.5 to 3 kg after going without nourishment for about 18 h. Blood samples were taken by cardiac puncture at time 0 and after 90 min. The aggregant U.46619 was used under the same conditions as above and the measurement of the aggregation was carried out using the same technique.
The results are expressed in Table III in terms of percentage inhibition of the maximum amplitude of the aggregation curve at t=+90 min relative to the control curve at t=0 and are given for compounds 2 and 3 by way of non-limiting example: […]

Compound: O=C(O)C1Cc2cc(CCNS(=O)(=O)c3ccc(Cl)cc3)ccc2O1 (stereo not drawn) [Compound 4, 5-(2-parachlorobenzenesulphonamidoethyl)-2,3-dihydro-2-benzofurancarboxylic acid monohydrate]
soluble in DMSO to give a solution of (Solubility in DMSO): 10%

Compound: Cc1ccc(S(=O)(=O)N(C)CC(=O)c2ccc3c(c2)CC(C(=O)O)O3)cc1 (stereo not drawn) [Compound 16, 5-(N-methylparatoluenesulphonamidoacetyl)-2,3-dihydro-2-benzofurancarboxylic acid]
soluble in DMSO to give a solution of (Solubility in DMSO): 10%

Compound: O=C(CNS(=O)(=O)c1ccc(Cl)cc1)c1ccc2c(c1)CC(C(=O)O)O2 (stereo not drawn) [Compound 1, 5-(parachlorobenzenesulphonamidoacetyl)-2,3-dihydro-2-benzofurancarboxylicacid]
IC50 [1]: 0.6 µM | fatality (conventional mice): not a single fatality | toxicity (conventional mice): atoxic | soluble in DMSO to give a solution of (Solubility in DMSO): 10%

Compound: O=C(O)C1Cc2cc(CCNS(=O)(=O)c3ccc(Cl)cc3)ccc2O1 (stereo not drawn) [Compound 17, Sodium 5-(2-parachlorobenzenesulphonamidoethyl)-2,3-dihydro-2-benzofurancarboxylate]
solubility (Solubility in water): 15 mg/mL

Compound: O=C(O)C1Cc2cc(C(O)CNS(=O)(=O)c3ccc(Cl)cc3)ccc2O1 (stereo not drawn) [Compound 3, 5-(2-parachlorobenzenesulphonamido-1-hydroxyethyl)-2,3-dihydro-2-benzofurancarboxylic acid]
IC50 [1]: 5 µM | fatality (conventional mice): not a single fatality | toxicity (conventional mice): atoxic | inhibition at 100 µM [2]: -86% | inhibition at 10 µM [2]: -7% | % inhibition of platelet aggregation ([2]; final concentration of compound 5.10^-5 M): -78% | soluble in DMSO to give a solution of (Solubility in DMSO): 10% | % inhibition of aggregation ([3]; 5 mg/kg orally): -43% | % inhibition of aggregation ([3]; 10 mg/kg orally): -74%

Compound: CC(NS(=O)(=O)c1ccc(Cl)cc1)C(O)c1ccc2c(c1)CC(C(=O)O)O2 (stereo not drawn) [Compound 6, 5-(2-Parachlorobenzenesulphonamido-1-hydroxypropyl)-2,3-dihydro-2-benzofurancarboxylic acid]
soluble in DMSO to give a solution of (Solubility in DMSO): 5%

Compound: O=C(O)c1cc2cc(CCNS(=O)(=O)c3ccc(Cl)cc3)ccc2o1 [Compound 11, 5-(2-Parachlorobenzenesulphonamidoethyl)-2-benzofurancarboxylic acid]
IC50 [1]: 2 µM | soluble in DMSO to give a solution of (Solubility in DMSO): 5%

Compound: O=C(O)C1Cc2cc(CCNS(=O)(=O)c3ccc(Cl)cc3)ccc2O1 (stereo not drawn) [Compound 2, 5-(2-parachlorobenzenesulphonamidoethyl)-2,3-dihydro-2-benzofurancarboxylic acid]
IC50 [1]: 0.5 µM | fatality (conventional mice): not a single fatality | toxicity (conventional mice): atoxic | inhibition at 100 µM [2]: -100% | inhibition at 10 µM [2]: -79% | % inhibition of platelet aggregation ([2]; final concentration of compound 5.10^-6 M): -31% | soluble in DMSO to give a solution of (Solubility in DMSO): 10% | % inhibition of aggregation ([3]; 5 mg/kg orally): -64% | % inhibition of aggregation ([3]; 10 mg/kg orally): -98%

Compound: O=C(CNS(=O)(=O)c1ccc(Cl)cc1)c1ccc2c(c1)CC(C(=O)O)O2 (stereo not drawn) [Compound 25, (dl)-Lysine 5-parachlorobenzenesulphonamidoacetyl-2,3-dihydro-2-benzofurancarboxylate trihydrate]
solubility (Solubility in water): 10 mg/mL

Compound: O=C(CNS(=O)(=O)c1c(F)c(F)c(F)c(F)c1F)c1ccc2c(c1)CC(C(=O)O)O2 (stereo not drawn) [Compound 24, 5-Pentafluorobenzenesulphonamidoacetyl-2,3-dihydro-2-benzofurancarboxylic acid]
solubility in water (Solubility in water): insoluble in water | soluble in DMSO to give a solution of (Solubility in DMSO): 20%

The next lines start with the values.

solubility (Solubility in water): 10 mg/mL (≈ 24.4 mM)
Compound: O=C(CNS(=O)(=O)c1ccc(Cl)cc1)c1ccc2c(c1)CCC(C(=O)O)O2 (racemic) [Compound 27, dl-Lysine 6-(parachlorobenzenesulphonamidoacetyl)-2-chromancarboxylate]

soluble in DMSO to give a solution of (Solubility in DMSO): 10%
Compound: CON=C(CNS(=O)(=O)c1ccc(Cl)cc1)c1ccc2c(c1)CC(C(=O)O)O2 (stereo not drawn) [Compound 14, 5-(2-parachlorobenzenesulphonamido-1-methoxyiminoethyl)-2,3-dihydro-2-benzofurancarboxylic acid]

soluble in DMSO to give a solution of (Solubility in DMSO): 10%
Compound: O=C(O)C1Cc2ccc(CCNS(=O)(=O)c3ccc(Cl)cc3)cc2C1 (stereo not drawn) [Compound 9, 5-(2-parachlorobenzenesulphonamidoethyl)-2-indanecarboxylic acid]

soluble in DMSO to give a solution of (Solubility in DMSO): 10%
Compound: O=C(O)C1Cc2cc(C(CNS(=O)(=O)c3ccc(Cl)cc3)=NO)ccc2O1 (stereo not drawn) [Compound 13]

solubility in water (Solubility in water): insoluble in water | soluble in DMSO to give a solution of (Solubility in DMSO): 25%
Compound: O=C(CNS(=O)(=O)c1ccc(Cl)cc1)c1ccc2c(c1)CCC(C(=O)O)O2 (stereo not drawn) [Compound 21, 6-(parachlorobenzenesulphonamidoacetyl)-2-chromancarboxylic acid]

solubility (Solubility in water): 10 mg/mL (≈ 25.3 mM)
Compound: O=C(O)C1CCc2cc(CCNS(=O)(=O)c3ccc(Cl)cc3)ccc2O1 (stereo not drawn) [Compound 26, (dl)-Lysine 6-(2-parachlorobenzenesulphonamidoethyl)-2-chromancarboxylate]

soluble in DMSO to give a solution of (Solubility in DMSO): 20%
Compound: O=C(O)C1Cc2cc(CCNS(=O)(=O)c3ccc(Cl)cc3)ccc2S1 (stereo not drawn) [Compound 10, 5-(2-Parachlorobenzenesulphonamidoethyl)-2,3-dihydro-2-benzothiophenecarboxylic acid]

solubility (Solubility in water): 5 mg/mL (≈ 12.7 mM)
Compound: O=C(CNS(=O)(=O)c1ccc(Cl)cc1)c1ccc2c(c1)CC(C(=O)O)C2 (racemic) [Compound 29, dl-Lysine 5-(parachlorobenzenesulphonamidoacetyl)-2-indanecarboxylate]

soluble in DMSO to give a solution of (Solubility in DMSO): 20%
Compound: O=C(O)C1Oc2ccc(CCNS(=O)(=O)c3ccc(Cl)cc3)cc2O1 (stereo not drawn) [Compound 8, 5-(2-Parachlorobenzenesulphonamidoethyl)-1,3-benzodioxole-2-carboxylic acid]

solubility in water (Solubility in water): insoluble in water | soluble in DMSO to give a solution of (Solubility in DMSO): 25%
Compound: O=C(CNS(=O)(=O)c1ccccc1)c1ccc2c(c1)CC(C(=O)O)O2 (stereo not drawn) [Compound 22, 5-(benzenesulphonamidoacetyl)-2,3-dihydro-2-benzofurancarboxylic acid]

solubility in water (Solubility in water): insoluble in water | soluble in DMSO to give a solution of (Solubility in DMSO): 15%
Compound: O=C(CNS(=O)(=O)c1ccc(Cl)cc1)c1ccc2c(c1)CC(C(=O)O)C2 (stereo not drawn) [Compound 28, 5-(Parachlorobenzenesulphonamidoacetyl)-2-indanecarboxylic acid]

soluble in DMSO to give a solution of (Solubility in DMSO): 30%
Compound: COc1ccc(S(=O)(=O)NCC(=O)c2ccc3c(c2)CC(C(=O)O)O3)cc1 (stereo not drawn) [Compound 23, 5-paramethoxybenzenesulphonamidoacetyl-2,3-dihydro-2-benzofurancarboxylic acid]

solubility in water (Solubility in water): insoluble in water | soluble in DMSO to give a solution of (Solubility in DMSO): 25%
Compound: CCOC(=O)C1CCc2cc(C(=O)CNS(=O)(=O)c3ccc(Cl)cc3)ccc2O1 (stereo not drawn) [Compound 20, ethyl 6-(parachlorobenzenesulphonamidoacetyl)-2-chromancarboxylate]

soluble in DMSO to give a solution of (Solubility in DMSO): 10%
Compound: CC(NS(=O)(=O)c1ccc(Cl)cc1)C(=O)c1ccc2c(c1)CC(C(=O)O)O2 (stereo not drawn) [Compound 5, 5-(α-methylparachlorobenzenesulphonamidoacetyl)-2,3-dihydro-2-benzofurancarboxylic acid]

IC50 [1]: 0.5 µM | soluble in DMSO to give a solution of (Solubility in DMSO): 20%
Compound: O=C(O)C1CCc2cc(CCNS(=O)(=O)c3ccc(Cl)cc3)ccc2O1 (stereo not drawn) [Compound 7, 6-(2-Parachlorobenzenesulphonamidoethyl)-2-chromancarboxylic acid]
